Results on two compounds are retold here after patent US20060046975A1, “Method for preparing a medical solution for the manufacture of a medicament for peritoneal dialysis” (priority 2002, published 2006).

One data set concerns peritoneum. The note with it: cited from earlier work.
A further data set concerns cultured cells. Kind of data set: in vitro inhibition of cell growth (ICG) in cultured cells by heat sterilised NAG solutions. It counts as cell-based. The text has this: Experiments in which measurements of the percentage of inhibition of cell growth (ICG) and fluorescence have been made at varying NAG concentrations, and also at varying pH values, during terminal heat sterilisation are illustrated in FIGS. 1-4. The results of the experiments imply that the concentration of the amino sugar/sugars should be optimised.
(§1) A simple, reliable and known way to study the cytotoxicity of substances or of medical fluids is to test proliferation as in vitro inhibition of cell growth (ICG) in cultured cells. Another method to get a rough estimation of the amount of amino sugars that is rearranged is measurement of the fluorescence.
More precisely, from the graph in FIG. 1 it can be seen that the inhibition of cell growth reaches a maximum with sterilisation of a solution containing about 5% NAG. With increasing NAG concentration the inhibition of cell growth decreases.
The bar diagram in FIG. 2 illustrates the effect of increased NAG concentration at different pH values during terminal heat sterilisation.

A short description of data set [1]: fluorescence of terminally heat sterilised NAG containing solution. It counts as physicochemical. The settings on record: FIG. 3; excitation at 350 nm, emission of 430 nm.
Excerpt: as §1
The lowest fluorescence is seen at around pH 4.

Data set [2] in a line: pH change of the solution during sterilisation. It counts as physicochemical. The text has this:
NAG and other amino sugars have a major difference from glucose and glucose-like compounds by having one amino group and possibly an acetyl group coupled to the glucose ring.

The nature of data set [3]: analysis of degradation products (3-DG, 3,4-DGE) in heat sterilised solutions by HPLC. It counts as physicochemical. The settings on record: heat sterilised NAG solutions. The text has this: This cytotoxicity depends on the formation of toxic degradation products from said amino sugars. […] This fact has not been known previously and forms the basis for the present invention. It should be noted that the decomposition pattern for an amino sugar solution during heat sterilisation follows specific Maillard reactions giving several different toxic decomposition products. The decomposition pattern differs for e.g. a glucose solution during heat sterilisation, wherein different decomposition products are formed. This difference is illustrated in FIGS. 5a-5d, showing chromatograms when analysing 3-DG and 3,4-DGE in a NAG solution and in a glucose solution, respectively. The difference in degradation is likely due to that the NAG molecules contains groups that allows the Maillard reaction to take place and therefore create a large number of degradation products not seen in a glucose solution.

The test system of data set [4] is human peritoneal mesothelial cells and fibroblasts. The note with it: Breborowicz et al 1998; cited from earlier work.

For the compound hyaluronan [reference compound], the “function of the peritoneum as a dialysis membrane” value in the data set on peritoneum (Wieczorowska et al 1995, fluid supplemented with exogenous hyaluronan) is reported as “better preserved”.
As to `CC(=O)N[C@H]1C(O)O[C@H](CO)[C@@H](O)[C@@H]1O` (stereo partly drawn) [NAG, N-acetylglucosamine], the “inhibition of cell growth with increasing NAG concentration” value with cultured cells (FIG. 1, above the maximum at about 5% NAG) is given as “decreases”. In the data set on cultured cells (FIG. 1, terminal heat sterilisation), the “NAG concentration during sterilisation at which inhibition of cell growth reaches a maximum” value is recorded as “about 5%”. For the same compound, the “inhibition of cell growth, effect of NAG concentration during sterilisation” value with cultured cells (FIG. 2, 30% versus 1.5% NAG, for all three pH values) is listed as “lower after a terminal heat sterilisation at a NAG concentration of 30% than at a NAG concentration of 1.5%”. For the same compound, the “percentage inhibition of cell growth, effect of pH during sterilisation” value with cultured cells (FIG. 2, pH 3.0 versus pH 5.5 and 7.2) is “lower after terminal heat sterilisation at a pH of 3.0 than at a pH of 5.5 and 7.2”. Besides, the “optimal pH of sterilisation from an in vitro toxicological point of view” value with cultured cells (NAG containing solution, higher or lower pH gives higher percentage of inhibited growth) is 2.5-3.5. In addition, the “cytotoxicity after heat sterilisation” value with cultured cells (amino sugars, e.g. NAG, in conventional medical solutions) is on record as “increased cytotoxicity”. Moreover, the “pH at which fluorescence is lowest” value in data set [1] is reported as around 4. In addition, the “change of pH of the solution during sterilisation” value in data set [2] is “increases during sterilisation”. For the same compound, the “known glucose degradation products found” value in data set [3] is listed as “none of the known glucose degradation products has been found”. For the same compound, the “production of hyaluronan and sulphated glycosaminoglycans” value in data set [4] was “rapidly stimulates”. For the same compound, in the data set with peritoneum (Wu et al 1998, chronic peritoneal dialysis), the “effect on the peritoneum of dialysis solution supplemented with N-acetylglucosamine” value was “causes accumulation of glucosaminoglycans in the peritoneal interstitium”.
